Patent publication US20150218523A1, “MANUFACTURE OF VASCULAR SMOOTH MUSCLE CELLS AND THE USE” (Agency for Science, Technology and Research, priority 2014, published 2015)

Columns and labels:
[1] = tested on: NCSMCs derived from hESC (H9); conditions: NCSMCs at 1% oxygen, drug 48 hr (minocycline 5 μM, losartan 5 μM), then labeled Aβ for 1 hr
Procedure: NCSMCs and BVSMCs were routinely cultured at 21% oxygen and 1% oxygen to simulate normoxic and chronic hypoxic conditions, respectively. Twenty one percent O2 SMCs were seeded at 30,000 cells/well onto 96-well plate as positive controls. One percent O2 SMCs were seeded at the same density as negative controls and experimental samples for drug treatment on the same plate. The 96-well plate was incubated at 37° C. overnight at 21% O2. After cell attachment, 2 mg/ml of fluorescently labeled amyloid peptide (Aβ42-Hilyte Fluor 555 or Aβ40-Hilyte Fluor 488, Anaspec) was added to SMCs for a 1 hr uptake at 37° C. After Aβ uptake, cells were dissociated into single-cell suspension for high-throughput flow cytometry by LSRFortessa plate analyzer. Respective Z factors for NCSMC and BVSMC Aβ uptake assays were calculated based on their mean fluorescence brightness (normalized to no-uptake controls) and SDs of positive (21% O2) and negative (1% O2) controls. […] Mean fluorescence brightness signals (normalized to no-uptake control) indicated the degree of amyloid uptake.
NCSMC were treated with the following reference compounds for 48 hours at 37° C. prior to Aβ uptake. […]
The NCSMC and BVSMC cultures were scaled down to 96-well format. […] Cells were incubated with labeled Aβ40 and Aβ42 (2 mg/ml) for an hour and subsequently evaluated by high-throughput flow cytometry.

[2] = tested on: SMC subtypes; assay: SMC contraction study; assay type: cell-based, human; conditions: angiotensin II 0.5 μM, 10 min, all SMC subtypes, n=30
Procedure: SMCs were preloaded with the calcium-sensitive fluorophore, Fluo-4 AM (2.5 μM; Molecular Probes) at 37° C. for an hour. Contraction was induced by treating the cells with angiotensin II (0.5 μM, Sigma). Contraction pictures and intracellular calcium flux videos of SMCs were acquired by a time-lapse microscope live cell imaging microscope (Zeiss Axiovert 200M) during 10 minutes of angiotensin II treatment. Change of cell surface area was assessed by ImageJ software.

Compound | Effect on Aβ uptake (Aβ40 and Aβ42) over the vehicle control [1] | Reduction of cell surface area in contracting SMCs [2]
CCCCc1nc(Cl)c(CO)n1Cc1ccc(-c2ccccc2-c2nn[nH]n2)cc1 [losartan] | may not have any apparent effect | 
angiotensin II (DRVYIHPF; Angiotensin-2; UniProt P01019 25-32, looked up) [vasoconstrictor, an inducer of contraction (0.5 μM, Sigma)] |  | 18%-21%
